Data published in patent publication US10112937B2, “P2X7 modulators and methods of use” (Janssen Pharmaceutica NV, priority 2013, dated 2018).

Assays:
human P2X7 [1] = biological target: T1, human P2X7 (Homo sapiens (Human), UniProt Q99572); assay: P2X7 antagonism in human PBMCs (IL-1β release after LPS + Bz-ATP, ELISA); format: cell-based; settings: human PBMCs, test compound 10 μM
Protocol: (§1) P2X7 Antagonism in Human Peripheral Blood Mononuclear Cells (PBMCs) and Human Whole Blood.
Human blood was collected using a blood donor program. PBMCs were isolated from blood using a Ficoll density gradient technique. Briefly, blood was laid on Ficoll solution and centrifuged at RT for 20 minutes at 2000 rpm. The buffy layer (between red blood cells and plasma) was carefully collected by aspiration, washed with PBS and centrifuged again at 1500 rpm for 15 minutes. The resulting cell pellet was washed and plated on 96 well-plates for experiments. For the Human Whole Blood experiments, 150 μl of human blood was platted on 96 well-plates. Lipopolysaccharide (LPS) (30 ng/ml) was added to each well and incubated for 1 hour. Test compounds were then added and incubated for 30 minutes. The P2X7 agonist, 2′(3′)-O-(4-benzoylbenzoyl) adenosine 5′ triphosphate (Bz-ATP) was then added at a final concentration of 0.5 mM (PBMC) or 1 mM (blood). Cells were incubated for an additional 1.5 hours. At that point, supernatant was collected and stored for IL-1β assay using manufacturer's protocol for enzyme-linked immunosorbent assay (ELISA). Data was expressed as percent control, where control is defined as the difference in IL-1β release in LPS+Bz-ATP samples and LPS only samples. Data was plotted as response (% control) versus concentration to generate IC50 values. […] Data are analyzed and graphed on Graphpad Prism 5. For analysis, each concentration point is averaged from triplicate values and the averaged values are plotted on Graphpad Prism.

human P2X7 [2] = biological target: T1, human P2X7; assay: P2X7 antagonism in human whole blood (IL-1β release after LPS + Bz-ATP, ELISA); format: cell-based; settings: LPS 30 ng/ml + 1 mM Bz-ATP
Protocol: as §1
Human blood was collected using a blood donor program. PBMCs were isolated from blood using a Ficoll density gradient technique. Briefly, blood was laid on Ficoll solution and centrifuged at RT for 20 minutes at 2000 rpm. The buffy layer (between red blood cells and plasma) was carefully collected by aspiration, washed with PBS and centrifuged again at 1500 rpm for 15 minutes. The resulting cell pellet was washed and plated on 96 well-plates for experiments. For the Human Whole Blood experiments, 150 μl of human blood was platted on 96 well-plates. Lipopolysaccharide (LPS) (30 ng/ml) was added to each well and incubated for 1 hour. Test compounds were then added and incubated for 30 minutes. The P2X7 agonist, 2′(3′)-O-(4-benzoylbenzoyl) adenosine 5′ triphosphate (Bz-ATP) was then added at a final concentration of 0.5 mM (PBMC) or 1 mM (blood). Cells were incubated for an additional 1.5 hours. At that point, supernatant was collected and stored for IL-1β assay using manufacturer's protocol for enzyme-linked immunosorbent assay (ELISA). Data was expressed as percent control, where control is defined as the difference in IL-1β release in LPS+Bz-ATP samples and LPS only samples. […] Data are analyzed and graphed on Graphpad Prism 5. […]

human P2X7 [3] = biological target: T1, human P2X7; assay: Ca2+ flux (FLIPR) in 1321N1 cells expressing recombinant human P2X7; format: cell-based; settings: 1321N1 cells, recombinant human P2X7, 250 μM BzATP;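 also: cells loaded with Calcium-4 dye, preincubated with test compound for 30 min, fluorescence change read 180 s after agonist addition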
rat P2X7 [4] = biological target: T2, rat P2X7 (Rattus norvegicus (Rat), UniProt Q64663); assay: Ca2+ flux (FLIPR) in 1321N1 cells expressing recombinant rat P2X7; format: cell-based; settings: 1321N1 cells, recombinant rat P2X7, 250 μM BzATP;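 also: Calcium-4 dye fluorescence change read 180 s after agonist addition, with cells preincubated 30 min with compound and dye in 96-well plates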
T2 sequence (Q64663 whole entry): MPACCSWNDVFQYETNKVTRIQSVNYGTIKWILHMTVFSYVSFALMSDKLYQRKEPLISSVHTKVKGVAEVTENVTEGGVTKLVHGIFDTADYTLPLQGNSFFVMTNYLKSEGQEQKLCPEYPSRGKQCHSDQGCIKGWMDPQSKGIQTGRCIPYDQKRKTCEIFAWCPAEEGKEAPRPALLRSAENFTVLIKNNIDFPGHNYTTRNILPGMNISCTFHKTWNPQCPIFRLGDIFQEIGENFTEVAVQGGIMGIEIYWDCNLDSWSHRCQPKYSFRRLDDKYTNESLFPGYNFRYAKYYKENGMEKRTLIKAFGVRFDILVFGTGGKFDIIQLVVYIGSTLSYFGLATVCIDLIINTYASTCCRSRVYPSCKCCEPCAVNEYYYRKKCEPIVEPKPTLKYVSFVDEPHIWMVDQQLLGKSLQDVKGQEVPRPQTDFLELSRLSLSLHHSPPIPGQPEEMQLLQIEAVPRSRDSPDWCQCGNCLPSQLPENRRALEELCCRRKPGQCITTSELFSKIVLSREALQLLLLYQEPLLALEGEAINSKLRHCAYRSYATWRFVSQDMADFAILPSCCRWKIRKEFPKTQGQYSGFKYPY

human P2X7 [5] = biological target: T1, human P2X7; assay: Radioligand binding ([3H]A-804598), human P2X7-1321N1 cell membranes; settings: human P2X7-1321N1 membranes, tritiated A-804598
Protocol: (§2) human or rat P2X7-1321N1 cells were collected and frozen @−80° C. On the day of the experiment, cell membrane preparations were made according to standard published methods. […] The assay was terminated by filtration (GF/B filters pre-soaked with 0.3% PEI) and washed with washing buffer (Tris-HCl 50 mM). The IC50 generated in the binding assay was corrected for tracer concentration and affinity of the tracer to derive at the affinity (Ki) of the test compounds. […] For analysis, each concentration point is averaged from triplicate values and the averaged values are plotted on Graphpad Prism.

rat P2X7 [6] = biological target: T2, rat P2X7; assay: Radioligand binding ([3H]A-804598), rat P2X7-1321N1 cell membranes; settings: rat P2X7-1321N1 membranes, tritiated A-804598
Protocol: as §2

T1 sequence (Q99572 whole entry): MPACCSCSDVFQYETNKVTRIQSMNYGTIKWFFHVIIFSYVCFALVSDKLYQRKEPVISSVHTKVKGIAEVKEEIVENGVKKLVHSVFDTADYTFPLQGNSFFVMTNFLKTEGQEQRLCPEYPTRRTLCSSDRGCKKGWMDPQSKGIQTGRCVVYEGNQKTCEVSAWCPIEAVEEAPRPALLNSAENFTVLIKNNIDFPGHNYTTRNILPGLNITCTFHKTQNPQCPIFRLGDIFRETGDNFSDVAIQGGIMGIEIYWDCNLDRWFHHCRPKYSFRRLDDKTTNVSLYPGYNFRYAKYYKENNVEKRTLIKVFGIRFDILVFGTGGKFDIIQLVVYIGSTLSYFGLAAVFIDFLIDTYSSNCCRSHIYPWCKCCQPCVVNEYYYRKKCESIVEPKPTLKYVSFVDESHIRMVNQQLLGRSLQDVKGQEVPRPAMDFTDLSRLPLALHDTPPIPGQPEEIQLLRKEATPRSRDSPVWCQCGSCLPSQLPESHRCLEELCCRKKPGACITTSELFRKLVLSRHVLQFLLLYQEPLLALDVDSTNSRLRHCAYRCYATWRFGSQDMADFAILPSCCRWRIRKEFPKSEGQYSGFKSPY

Compound | PBMC 10 μM (% control) (human P2X7 [1]) | IC50 (human P2X7 [2]) [nM] | IC50 (human P2X7 [3]) [nM] | IC50 (rat P2X7 [4]) [nM] | Ki (human P2X7 [5]) [nM] | Ki (rat P2X7 [6]) [nM]
Cc1ccnc(-n2nnc3c2CCN(C(=O)c2cccc(C(F)(F)F)c2Cl)[C@@H]3C)n1 (single isomer, unassigned) [Example 235, (4R*)-(2-Chloro-3-(trifluoromethyl)phenyl)(4-methyl-1-(4-methylpyrimidin-2-yl)-6,7-dihydro-1H-[1,2,3]triazolo[4,5-c]pyridin-5(4H)-yl)methanone] | −3.7 | 17 | – | – | – | –
Cc1cc(-n2nnc3c2CCN(C(=O)c2ccnc(C(F)(F)F)c2Cl)[C@@H]3C)ncc1F (single isomer, unassigned) [Example 371, (R*)-(3-chloro-2-(trifluoromethyl)pyridin-4-yl)(1-(5-fluoro-4-methylpyridin-2-yl)-4-methyl-6,7-dihydro-1H-[1,2,3]triazolo[4,5-c]pyridin-5(4H)-yl)methanone] | −2.3 | – | 4.3 | 42.5 | 17.6 | 47.3
